Data as given in patent publication US20250353864A1, “INDAZOLE CONTAINING MACROCYCLES AND THEIR USE” (BLOSSOMHILL THERAPEUTICS, INC., priority 2022, published 2025).
Where two headings read alike, the source gives them in different places. Values belong to the compound of their own block, whether it stands above or below them.

Tests used:
[1] = cc_pd bond
[2] = cc_pd bond; 15-membered ring; Pd(dppf)Cl2/Cs2CO3; 1,4-dioxane/H2O 5:1; 127.0 mM; 90.0 °C
[3] = from C=Cc1nn(C2CCCCO2)c2ccc(-c3cnn(C)c3O[C@H](CC)CN(C)Cc3c(I)c(OCC)nn3CCO[Si](C)(C)C(C)(C)C)cc12; cc_pd bond; 15-membered ring; Pd(OAc)2/TBAC/NaHCO3; DMF; 97.8 mM; 80.0 °C; 1.0 h
EGFR WT = EGFR WT (Homo sapiens (Human), UniProt P00533); assay: HotSpot radiometric kinase assay (Reaction Biology), EGFR WT; format: biochemical; conditions: 10 μM ATP
Procedure, shortened: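 10 μM ATP (33P-labelled, final); 120 min RT; P81 filter capture, 0.75% phosphoric acid washes. Cpd preincubated ~20 min with enzyme/substrate, 20 mM Hepes pH 7.5, 10 mM MgCl2, 1% DMSO. IC50 by curve fit.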

EGFR (D770_N771insNPG) = EGFR (D770_N771insNPG) (Homo sapiens (Human), UniProt P00533, INS770NPG); assay: HotSpot radiometric kinase assay, EGFR (D770_N771insNPG); format: biochemical; conditions: 10 μM ATP, read-out: EGFR (Δ770_N771insNPG) IC50
Procedure, shortened: (§1)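 Radiometric filter-binding assay with EGFR mutant kinase/substrate pairs in 20 mM Hepes pH 7.5 with Mg, EGTA, Brij35, BSA, Na3VO4, DTT, 1% DMSO. Compound preincubated ~20 min, then ATP/^33P-ATP added at 10 μM final. Reaction 120 min at room temperature, spotted on P81 paper; IC50 from curve fits.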

EGFR Δ746-750 mutant = EGFR Δ746-750 mutant (Homo sapiens (Human), UniProt P00533, DEL746-750); assay: HotSpot radiometric kinase assay, EGFR Δ746-750 mutant; format: biochemical; conditions: 10 μM ATP
Procedure, shortened: as §1

[4] = molecular target: EGFR Δ746-750/C797S mutant (Homo sapiens (Human), UniProt P00533, C797S/DEL746-750); assay: HotSpot radiometric kinase assay, EGFR Δ746-750/C797S mutant; format: biochemical; conditions: 10 μM ATP
Procedure, shortened: as §1

EGFR L858R mutant = EGFR L858R mutant (Homo sapiens (Human), UniProt P00533, L858R); assay: HotSpot radiometric kinase assay, EGFR L858R mutant; format: biochemical; conditions: 10 μM ATP
Procedure, shortened: as §1

EGFR L858R/T790M mutant = EGFR L858R/T790M mutant (Homo sapiens (Human), UniProt P00533, L858R/T790M); assay: HotSpot radiometric kinase assay, EGFR L858R/T790M mutant; format: biochemical; conditions: 10 μM ATP
Procedure, shortened: as §1

[5] = molecular target: EGFR L858R/T790M/C797S mutant (Homo sapiens (Human), UniProt P00533, C797S/L858R/T790M); assay: HotSpot radiometric kinase assay, EGFR L858R/T790M/C797S mutant; format: biochemical; conditions: 10 μM ATP
Procedure, shortened: as §1

ALK = ALK (Homo sapiens (Human), UniProt Q9UM73); assay: HotSpot radiometric kinase assay, inhibition of ALK kinase activity; format: biochemical; conditions: 10 μM ATP
Description: Briefly, specific kinase/substrate pairs along with required cofactors were prepared in reaction buffer; 20 mM Hepes pH 7.5, 10 mM […], 1 mM EGTA, 0.02% Brij35, 0.02 mg/ml BSA, 0.1 mM Na3VO4, 2 mM DTT, 1% DMSO. Compounds were delivered into the reaction, followed […] later by addition of a mixture of ATP (Sigma, St. Louis MO) and ^33P ATP (Perkin Elmer, Waltham MA) to a final concentration of 10 μM. Reactions were carried out at room temperature for 120 min, followed by spotting of the reactions onto P81 ion exchange filter paper (Whatman Inc., Piscataway, NJ). Unbound phosphate was removed by extensive washing of filters in 0.75% phosphoric acid. […] IC50 values and curve fits were obtained using Prism (GraphPad Software).

CLK1 = CLK1 (Homo sapiens (Human), UniProt P49759); assay: Inhibition of CLK1 kinase activity evaluated at Nanosyn (ADP-Glo); format: biochemical; conditions: ADP-Glo luminescence
Procedure, shortened: (§2)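 ADP-Glo luminescence (40 min depletion, 10 min detection) quantifies ADP from ATP-initiated phosphorylation of substrate by each CLK isoform in HEPES pH 7.5 buffer, 1% DMSO, assay-specific incubation. %-inhibition calculated against uninhibited and enzyme-free controls.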

CLK2 = CLK2 (Homo sapiens (Human), UniProt P49760); assay: Inhibition of CLK2 kinase activity evaluated at Nanosyn (ADP-Glo); format: biochemical; conditions: ADP-Glo luminescence
Procedure, shortened: as §2

CLK3 = CLK3 (Homo sapiens (Human), UniProt P49761); assay: Inhibition of CLK3 kinase activity evaluated at Nanosyn (ADP-Glo); format: biochemical; conditions: ADP-Glo luminescence
Procedure, shortened: as §2

CLK4 = CLK4 (Homo sapiens (Human), UniProt Q9HAZ1); assay: Inhibition of CLK4 kinase activity evaluated at Nanosyn (ADP-Glo); format: biochemical; conditions: ADP-Glo luminescence
Procedure, shortened: as §2

EGFR WT, sequence (P00533 25-1210): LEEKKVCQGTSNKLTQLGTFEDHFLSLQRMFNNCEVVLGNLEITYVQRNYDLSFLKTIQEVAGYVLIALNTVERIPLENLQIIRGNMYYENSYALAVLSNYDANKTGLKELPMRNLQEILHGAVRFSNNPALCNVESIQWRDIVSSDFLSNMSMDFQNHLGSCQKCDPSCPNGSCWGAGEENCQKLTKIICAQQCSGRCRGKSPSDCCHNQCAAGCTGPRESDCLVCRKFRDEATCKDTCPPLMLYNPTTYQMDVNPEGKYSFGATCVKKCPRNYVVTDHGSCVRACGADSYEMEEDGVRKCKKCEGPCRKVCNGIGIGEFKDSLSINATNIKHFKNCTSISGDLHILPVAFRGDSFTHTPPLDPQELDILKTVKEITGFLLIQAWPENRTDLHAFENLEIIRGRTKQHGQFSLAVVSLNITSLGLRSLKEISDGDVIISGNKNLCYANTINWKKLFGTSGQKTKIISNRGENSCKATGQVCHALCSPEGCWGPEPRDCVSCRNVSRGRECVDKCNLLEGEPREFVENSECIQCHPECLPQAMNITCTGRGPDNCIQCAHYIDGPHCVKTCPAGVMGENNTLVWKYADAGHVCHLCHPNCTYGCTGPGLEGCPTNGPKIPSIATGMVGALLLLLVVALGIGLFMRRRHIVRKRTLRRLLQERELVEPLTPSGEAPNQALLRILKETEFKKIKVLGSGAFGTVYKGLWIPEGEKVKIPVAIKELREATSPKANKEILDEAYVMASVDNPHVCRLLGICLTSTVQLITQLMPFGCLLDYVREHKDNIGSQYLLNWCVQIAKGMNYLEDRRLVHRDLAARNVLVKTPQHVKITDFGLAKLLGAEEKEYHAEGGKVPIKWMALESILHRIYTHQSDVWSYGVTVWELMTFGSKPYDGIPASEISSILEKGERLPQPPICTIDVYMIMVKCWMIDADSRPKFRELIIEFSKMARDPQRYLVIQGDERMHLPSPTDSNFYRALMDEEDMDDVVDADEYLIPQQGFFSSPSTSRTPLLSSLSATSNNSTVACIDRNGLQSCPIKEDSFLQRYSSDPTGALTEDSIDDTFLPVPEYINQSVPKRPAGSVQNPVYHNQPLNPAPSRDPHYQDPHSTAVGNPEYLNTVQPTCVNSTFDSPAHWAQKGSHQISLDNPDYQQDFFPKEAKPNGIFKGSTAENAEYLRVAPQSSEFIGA
CLK3, sequence (P49761 whole entry): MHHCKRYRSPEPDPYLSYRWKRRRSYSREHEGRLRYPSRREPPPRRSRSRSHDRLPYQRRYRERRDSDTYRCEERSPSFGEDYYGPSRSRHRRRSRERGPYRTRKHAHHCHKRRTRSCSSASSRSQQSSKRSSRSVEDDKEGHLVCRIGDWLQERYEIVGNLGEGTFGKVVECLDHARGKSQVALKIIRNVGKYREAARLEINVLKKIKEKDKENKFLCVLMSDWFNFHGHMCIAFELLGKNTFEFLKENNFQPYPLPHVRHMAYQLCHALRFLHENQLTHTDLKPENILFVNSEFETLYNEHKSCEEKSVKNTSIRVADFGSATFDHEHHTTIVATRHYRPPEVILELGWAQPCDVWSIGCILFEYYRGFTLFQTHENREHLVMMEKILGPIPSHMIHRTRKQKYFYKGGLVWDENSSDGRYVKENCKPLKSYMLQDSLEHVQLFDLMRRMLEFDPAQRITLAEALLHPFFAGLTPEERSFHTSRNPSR
EGFR L858R/T790M/C797S mutant, sequence (P00533 25-1210 T790M/C797S/L858R): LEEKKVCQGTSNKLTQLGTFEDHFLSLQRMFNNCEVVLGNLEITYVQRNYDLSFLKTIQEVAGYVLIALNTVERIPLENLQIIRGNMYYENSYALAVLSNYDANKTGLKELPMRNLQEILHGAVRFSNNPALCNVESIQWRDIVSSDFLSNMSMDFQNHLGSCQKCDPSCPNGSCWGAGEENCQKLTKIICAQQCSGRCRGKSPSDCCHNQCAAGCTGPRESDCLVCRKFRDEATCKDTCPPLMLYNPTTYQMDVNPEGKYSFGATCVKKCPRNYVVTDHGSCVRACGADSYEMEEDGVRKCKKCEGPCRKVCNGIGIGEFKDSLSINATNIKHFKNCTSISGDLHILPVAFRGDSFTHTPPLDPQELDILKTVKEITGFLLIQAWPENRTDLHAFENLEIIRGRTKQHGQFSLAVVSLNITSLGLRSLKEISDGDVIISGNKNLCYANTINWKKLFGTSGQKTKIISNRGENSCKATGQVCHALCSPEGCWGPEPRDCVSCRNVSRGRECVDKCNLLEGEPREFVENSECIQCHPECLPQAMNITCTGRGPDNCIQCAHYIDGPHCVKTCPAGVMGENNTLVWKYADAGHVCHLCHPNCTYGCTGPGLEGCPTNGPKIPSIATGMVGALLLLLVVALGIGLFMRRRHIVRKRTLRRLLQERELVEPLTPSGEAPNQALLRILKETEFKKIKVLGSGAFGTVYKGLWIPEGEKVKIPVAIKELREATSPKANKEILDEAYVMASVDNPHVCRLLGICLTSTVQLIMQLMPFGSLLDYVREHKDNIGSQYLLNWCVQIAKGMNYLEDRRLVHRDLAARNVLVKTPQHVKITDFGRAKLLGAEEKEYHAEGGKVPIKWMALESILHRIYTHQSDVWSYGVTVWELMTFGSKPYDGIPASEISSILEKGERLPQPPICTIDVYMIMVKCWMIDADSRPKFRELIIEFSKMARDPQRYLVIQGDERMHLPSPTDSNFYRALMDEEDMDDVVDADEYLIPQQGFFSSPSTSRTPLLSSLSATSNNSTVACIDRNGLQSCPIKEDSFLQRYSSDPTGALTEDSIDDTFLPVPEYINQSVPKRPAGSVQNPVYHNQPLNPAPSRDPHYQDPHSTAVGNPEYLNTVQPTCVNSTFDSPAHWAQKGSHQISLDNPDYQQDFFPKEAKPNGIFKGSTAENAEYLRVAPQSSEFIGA
EGFR L858R/T790M mutant, sequence (P00533 25-1210 T790M/L858R): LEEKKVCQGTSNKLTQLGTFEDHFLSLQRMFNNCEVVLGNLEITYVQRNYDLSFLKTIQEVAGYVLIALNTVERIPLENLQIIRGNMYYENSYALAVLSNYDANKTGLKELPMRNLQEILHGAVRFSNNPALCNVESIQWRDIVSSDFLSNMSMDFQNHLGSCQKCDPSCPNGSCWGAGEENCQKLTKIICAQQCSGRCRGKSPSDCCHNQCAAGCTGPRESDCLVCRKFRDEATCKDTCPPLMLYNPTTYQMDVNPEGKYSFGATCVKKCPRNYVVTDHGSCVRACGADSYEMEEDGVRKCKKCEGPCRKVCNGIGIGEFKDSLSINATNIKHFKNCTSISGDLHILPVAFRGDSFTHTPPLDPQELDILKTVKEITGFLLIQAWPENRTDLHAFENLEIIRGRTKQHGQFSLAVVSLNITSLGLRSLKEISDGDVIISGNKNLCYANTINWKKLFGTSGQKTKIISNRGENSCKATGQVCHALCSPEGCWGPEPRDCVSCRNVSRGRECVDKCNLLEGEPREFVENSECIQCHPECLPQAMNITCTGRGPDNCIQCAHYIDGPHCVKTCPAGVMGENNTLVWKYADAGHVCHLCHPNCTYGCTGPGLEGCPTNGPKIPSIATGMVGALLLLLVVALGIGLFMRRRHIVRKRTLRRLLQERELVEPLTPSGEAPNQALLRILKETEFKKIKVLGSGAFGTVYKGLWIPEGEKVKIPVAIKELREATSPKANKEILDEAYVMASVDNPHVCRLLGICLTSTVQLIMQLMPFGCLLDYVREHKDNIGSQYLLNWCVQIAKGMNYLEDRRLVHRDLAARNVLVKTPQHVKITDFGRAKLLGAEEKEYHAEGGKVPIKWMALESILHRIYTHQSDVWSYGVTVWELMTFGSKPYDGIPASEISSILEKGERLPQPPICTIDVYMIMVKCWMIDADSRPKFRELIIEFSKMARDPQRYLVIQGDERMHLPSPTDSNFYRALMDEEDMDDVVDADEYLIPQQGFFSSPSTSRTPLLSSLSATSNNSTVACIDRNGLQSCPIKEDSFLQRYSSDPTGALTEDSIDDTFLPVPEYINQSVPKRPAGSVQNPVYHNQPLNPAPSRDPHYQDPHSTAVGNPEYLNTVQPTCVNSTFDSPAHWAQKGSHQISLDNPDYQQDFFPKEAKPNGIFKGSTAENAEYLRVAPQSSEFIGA
CLK2, sequence (P49760 whole entry): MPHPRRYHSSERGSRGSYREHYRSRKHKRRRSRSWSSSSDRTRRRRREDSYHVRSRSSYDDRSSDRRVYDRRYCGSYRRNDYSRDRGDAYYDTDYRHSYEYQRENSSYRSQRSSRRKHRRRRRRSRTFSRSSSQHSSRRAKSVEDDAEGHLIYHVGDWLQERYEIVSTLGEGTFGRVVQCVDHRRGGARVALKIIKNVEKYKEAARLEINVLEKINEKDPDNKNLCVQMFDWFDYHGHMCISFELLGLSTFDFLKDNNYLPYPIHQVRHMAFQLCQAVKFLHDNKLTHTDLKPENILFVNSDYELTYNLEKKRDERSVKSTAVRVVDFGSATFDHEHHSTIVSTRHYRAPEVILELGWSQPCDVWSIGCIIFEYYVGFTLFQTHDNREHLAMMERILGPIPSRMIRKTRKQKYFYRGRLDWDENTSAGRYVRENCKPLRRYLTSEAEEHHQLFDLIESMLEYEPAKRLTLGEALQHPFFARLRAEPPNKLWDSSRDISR
EGFR Δ746-750 mutant, sequence (P00533 other isoform, or with tags, fused parts or gaps del 1-668/del 746-750 limits assumed): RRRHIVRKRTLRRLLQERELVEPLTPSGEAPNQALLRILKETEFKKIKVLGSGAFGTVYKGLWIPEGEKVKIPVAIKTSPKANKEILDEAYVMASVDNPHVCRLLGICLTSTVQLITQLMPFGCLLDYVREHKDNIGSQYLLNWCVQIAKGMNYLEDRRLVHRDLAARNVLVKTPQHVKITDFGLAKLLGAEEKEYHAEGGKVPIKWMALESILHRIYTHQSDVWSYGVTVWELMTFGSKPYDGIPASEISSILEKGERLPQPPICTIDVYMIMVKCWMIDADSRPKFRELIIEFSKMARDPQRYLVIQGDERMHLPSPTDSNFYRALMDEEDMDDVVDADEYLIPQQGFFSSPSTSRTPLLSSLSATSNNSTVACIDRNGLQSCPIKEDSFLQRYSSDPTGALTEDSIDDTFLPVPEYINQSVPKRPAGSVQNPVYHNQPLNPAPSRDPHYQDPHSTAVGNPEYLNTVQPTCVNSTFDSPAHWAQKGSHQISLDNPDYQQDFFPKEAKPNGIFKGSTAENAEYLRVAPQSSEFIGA

Compound: COC(=O)[C@H]1CN(C)Cc2c(c(OC(C)C)nn2CCO[Si](C)(C)C(C)(C)C)/C=C/c2nn(C3CCCCO3)c3ccc(cc23)-c2cnn(C)c2O1 (stereo partly drawn)
ring closure, isolated yield ([1]; from C=Cc1nn(C2CCCCO2)c2ccc(-c3cnn(C)c3O[C@H](CN(C)Cc3c(I)c(OC(C)C)nn3CCO[Si](C)(C)C(C)(C)C)C(=O)OC)cc12, 15-membered ring, Pd(OAc)2/TBAC/TEA, DMF, 11.6 mM, 100.0 °C, 2.0 h): 47%

Compound: Cc1c2c(nn1C)C=Cc1nn(C3CCCCO3)c3ccc(cc13)-c1cnn(C)c1O[C@@H](C)CN(C)C2 (stereo partly drawn)
ring closure, isolated yield ([1]; from Cc1c(CN(C)C[C@H](C)Oc2c(-c3ccc4c(c3)c(/C=C/B3OC(C)(C)C(C)(C)O3)nn4C3CCCCO3)cnn2C)c(I)nn1C, 15-membered ring, BrettPhos Pd G4/Na2CO3 aq, dioxane/H2O, 24.8 mM, 80.0 °C, 2.0 h): 58%

Compound: 2-[(17E)-5,15-dimethyl-21-tetrahydropyran-2-yl-7,10-dioxa-4,5,13,14,20,21-hexazapentacyclo[17.5.2.0^2,6.0^12,160.0^22,26]hexacosa-1(25),2(6),3,12(16),14,17,19,22(26),23-nonaen-13-yl]acetic acid
ring closure, yield after HPLC [2]: 30%

Compound: Cc1n[nH]c2c1/C=C/c1nn(C3CCCCO3)c3ccc(cc13)-c1cnn(C)c1CN(C(=O)OC(C)(C)C)CCO2 (stereo not drawn)
ring closure, isolated yield ([1]; from tert-butyl N-[2-[(4-iodo-3-methyl-1H-pyrazol-5-yl)oxy]ethyl]-N-[[2-methyl-4-[1-tetrahydropyran-2-yl-3-[(E)-2-(4,4,5,5-tetramethyl-1,3,2-dioxaborolan-2-yl)vinyl]indazol-5-yl]pyrazol-3-yl]methylicarbamate, 15-membered ring): 54%

Compound: CCOc1nn(CCO)c2c1/C=C/c1nn(C3CCCCO3)c3cc(F)c(cc13)-c1cnn(C)c1O[C@@H]1CCCN(C2)C1 (stereo partly drawn)
ring closure, isolated yield ([1]; from CCOc1nn(CCO)c(CN2CCC[C@@H](Oc3c(-c4cc5c(/C=C/B6OC(C)(C)C(C)(C)O6)nn(C6CCCCO6)c5cc4F)cnn3C)C2)c1I, 15-membered ring, CataCXium A Pd G3/K3PO4, dioxane, 112.0 mM, 90.0 °C, 2.0 h): 42%

Compound: Cn1ncc2c1OCCN1CC[C@@H](Oc3ccccc3/C=C/c3nn(C4CCCCO4)c4ccc-2cc34)C1=O (stereo partly drawn)
ring closure, isolated yield ([1]; from Cn1ncc(-c2ccc3c(c2)c(/C=C/B2OC(C)(C)C(C)(C)O2)nn3C2CCCCO2)c1OCCN1CC[C@@H](Oc2ccccc2I)C1=O, 17-membered ring, XPhos Pd G4/K3PO4, DMA, 25.0 mM, 80.0 °C, 2.0 h): 36%

Compound: Cc1nn(C)c2c1C=Cc1nn(C3CCCCO3)c3ccc(cc13)-c1cnn(C)c1OCCOC2 (stereo not drawn)
ring closure, isolated yield ([1]; from Cc1nn(C)c(COCCOc2c(-c3ccc4c(c3)c(/C=C/B3OC(C)(C)C(C)(C)O3)nn4C3CCCCO3)cnn2C)c1I, 15-membered ring, Pd XPhos G4/K3PO4, DMA/H2O, 55.3 mM, 90.0 °C, 3.0 h): 14.2%

Compound: Cc1nn(C)c2c1/C=C/c1nn(C3CCCCO3)c3ccc(cc13)-c1cnn(C)c1CN(C)CC(C)O2 (stereo not drawn)
ring closure, isolated yield ([1]; from Cc1nn(C)c(OC(C)CN(C)Cc2c(-c3ccc4c(c3)c(/C=C/B3OC(C)(C)C(C)(C)O3)nn4C3CCCCO3)cnn2C)c1I, 15-membered ring, XPhos Pd G4/K3PO4, DMA, 66.5 mM, 80.0 °C, 2.0 h): 24%

Compound: Cn1ncc2c1OCCN1CC[C@@H](Oc3cc(Cl)ccc3C=Cc3nn(C4CCCCO4)c4ccc-2cc34)C1=O (stereo partly drawn)
ring closure, isolated yield ([1]; from Cn1ncc(-c2ccc3c(c2)c(/C=C/B2OC(C)(C)C(C)(C)O2)nn3C2CCCCO2)c1OCCN1CC[C@@H](Oc2cc(Br)ccc2I)C1=O, 17-membered ring, Pd(dppf)Cl2.CH2Cl2/K2CO3, dioxane/H2O 5:1, 19.4 mM, 90.0 °C, 2.0 h): 38%

Compound: CCOc1nn(CCO[Si](C)(C)C(C)(C)C)c2c1C=Cc1nn(C3CCCCO3)c3ccc(cc13)-c1cnn(C)c1O[C@H](CC)CN(C)C2 (stereo partly drawn)
ring closure, crude yield [3]: 62%

IC50 (EGFR WT): 7.25 nM | IC50 (EGFR (D770_N771insNPG)): 21.2 nM | IC50 (EGFR Δ746-750 mutant): 3.02 nM | IC50 [4]: 5.13 nM | IC50 (EGFR L858R mutant): 4.73 nM | IC50 (EGFR L858R/T790M mutant): 5.3 nM | IC50 [5]: 3.84 nM | IC50 (ALK): 1.31 nM | IC50 (CLK1): 2.05 nM | IC50 (CLK2): 4.51 nM | IC50 (CLK3): 146 nM | IC50 (CLK4): 5.62 nM
Compound: CCN1Cc2c(c(OC(C)C)nn2[C@@H](C)CO)/C=C/c2n[nH]c3cc(F)c(cc23)-c2cnn(C)c2O[C@@H](C)C1 [Example 219, (2S)-2-{(10S,17E)-12-ethyl-19-fluoro-8,10-dimethyl-16-[(propan-2-yl)oxy]-2,8,10,11,12,13-hexahydro-14H-3,5-ethenotripyrazolo[3,4-f:3′,4′-j:4″,3″- n][1,4]oxazacyclopentadecin-14-yl}propan-1-ol]

IC50 (EGFR WT): 0.77 nM | IC50 (EGFR (D770_N771insNPG)): 8.31 nM | IC50 (EGFR Δ746-750 mutant): 0.22 nM | IC50 [4]: 0.48 nM | IC50 (EGFR L858R mutant): 0.35 nM | IC50 (EGFR L858R/T790M mutant): 0.2 nM | IC50 [5]: 0.17 nM | IC50 (ALK): 2.47 nM | IC50 (CLK1): 2.37 nM | IC50 (CLK2): 2.51 nM | IC50 (CLK3): 592 nM | IC50 (CLK4): 7.25 nM
Compound: CCOc1nn([C@@H](C)CO)c2c1/C=C/c1n[nH]c3cc(F)c(cc13)-c1cnn(C)c1O[C@@H](C)CN(C)C2 [Example 214, (2S)-2-[(10S,17E)-16-ethoxy-19-fluoro-8,10,12-trimethyl-2,8,10,11,12,13-hexahydro-14H-3,5-ethenotripyrazolo[3,4-f:3′,4′-j:4″,3″- n][1,4]oxazacyclopentadecin-14-yl]propan-1-ol]

Compound: CCOC(=O)c1nn(C)c2c1-c1ccc3c(c1)c(nn3C1CCCCO1)/C=C/c1c(OCC)nn(CCO[Si](C)(C)C(C)(C)C)c1CN(CC)C[C@H](C)O2 (stereo partly drawn)
ring closure, isolated yield ([1]; from ethyl 5-[(1S)-2-[[2-[2-[tert-butyl(dimethyl)silyl]oxyethyl]-5-ethoxy-4-iodo-pyrazol-3-yl]methyl-ethyl-amino]-1-methyl-ethoxy]-1-methyl-4-(1-tetrahydropyran-2-yl-3-vinyl-indazol-5-yl) pyrazole-3-carboxylate, 15-membered ring, Pd(OAc)2/TBAC/NaHCO3, DMF, 67.4 mM, 120.0 °C): 77%

IC50 (EGFR WT): 2.34 nM | IC50 (EGFR (D770_N771insNPG)): 8.5 nM | IC50 (EGFR Δ746-750 mutant): 0.63 nM | IC50 [4]: 1.25 nM | IC50 (EGFR L858R mutant): 0.61 nM | IC50 (EGFR L858R/T790M mutant): 0.26 nM | IC50 [5]: 2.12 nM | IC50 (ALK): 1.05 nM | IC50 (CLK1): 0.14 nM | IC50 (CLK2): 0.04 nM | IC50 (CLK3): 19.4 nM | IC50 (CLK4): 0.33 nM
Compound: CCOc1nn(CCO)c2c1/C=C/c1n[nH]c3ccc(cc13)-c1cnn(C)c1O[C@@H](C)CN(C)C2 [Example 119, 2-[(10S,17E)-16-ethoxy-8,10,12-trimethyl-2,8,10,11,12,13-hexahydro-14H-3,5-ethenotripyrazolo[3,4-f:3′,4′-j:4″,3″-n][1,4]oxazacyclopentadecin-14-yl]ethan-1-ol]

Compound: CCOc1nn(CCO[Si](C)(C)C(C)(C)C)c2c1/C=C/c1nn(C3CCCCO3)c3cc(F)c(cc13)-c1c(C)nn(C)c1O[C@@H](C)CN(C(C)C)C2 (stereo partly drawn)
ring closure, isolated yield ([1]; from C=Cc1nn(C2CCCCO2)c2cc(F)c(-c3c(C)nn(C)c3O[C@@H](C)CN(Cc3c(I)c(OCC)nn3CCO[Si](C)(C)C(C)(C)C)C(C)C)cc12, 15-membered ring, Pd(OAc)2/TBAC/NaHCO3, DMF, 96.7 mM, 140.0 °C, 1.0 h): 84%
